In US9139557B2, “Carboxamide compounds and their use as calpain inhibitors” (Abbott GmbH & Co. KG, priority 2006, dated 2015):

What was measured:
Assay type in all cases: biochemical
cathepsin B = target: T1, cathepsin B (Homo sapiens, UniProt P07858); assay: Cathepsin B enzyme inhibition in vitro (kinetic fluorescence assay); settings: Ki(cathepsin B)/Ki(calpain) ratio
T1 construct: cathepsin B—isolated from human liver; purchased Calbiochem 219362; host or cells: human liver (tissue isolate)
Outline: (§1)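 Kinetic fluorescence (ex 390/em 460 nm), room temperature: calpain-I (human erythrocyte, 20 nM) with 100 µM Suc-Leu-Tyr-AMC, imidazole/CaCl2 pH 7.3; cathepsin B (liver, 0.25 nM), 100 µM Z-Phe-Arg-AMC; L (liver, 1 nM), 2 µM Z-Phe-Arg-AMC; S (recombinant, 0.5 nM), 20 µM Z-Val-Val-Arg-AMC; cathepsins in MES/EDTA/cysteine pH 6.0. Apparent Ki via Cheng-Prusoff, 2–4 curves averaged.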

cathepsin K = target: T2, cathepsin K (Homo sapiens, UniProt P43235); assay: Cathepsin K enzyme inhibition in vitro (kinetic fluorescence assay); settings: Ki(cathepsin K)/Ki(calpain) ratio
T2 construct: purchased Calbiochem 342001; host or cells: E. coli
T2 sequence (P43235 115-329): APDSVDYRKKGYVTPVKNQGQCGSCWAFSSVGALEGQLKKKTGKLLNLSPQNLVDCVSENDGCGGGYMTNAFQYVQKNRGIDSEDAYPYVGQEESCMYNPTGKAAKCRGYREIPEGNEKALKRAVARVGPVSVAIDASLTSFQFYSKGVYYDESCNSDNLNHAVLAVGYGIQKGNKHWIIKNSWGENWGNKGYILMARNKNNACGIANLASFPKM

cathepsin L = target: T3, cathepsin L (Homo sapiens, UniProt P07711); assay: Cathepsin L enzyme inhibition in vitro (kinetic fluorescence assay); settings: Ki(cathepsin L)/Ki(calpain) ratio
T3 construct: cathepsin L—isolated from human liver; purchased Calbiochem 219402; host or cells: human liver (tissue isolate)
T3 sequence (P07711 114-333): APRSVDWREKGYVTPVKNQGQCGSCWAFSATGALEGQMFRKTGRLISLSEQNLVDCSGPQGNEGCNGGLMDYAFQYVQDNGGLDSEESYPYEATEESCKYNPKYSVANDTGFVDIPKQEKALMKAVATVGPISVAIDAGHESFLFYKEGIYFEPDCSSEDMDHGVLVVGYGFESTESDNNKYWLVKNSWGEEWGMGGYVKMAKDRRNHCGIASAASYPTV
Outline: as §1

cathepsin S = target: T4, cathepsin S (Homo sapiens, UniProt P25774); assay: Cathepsin S enzyme inhibition in vitro (kinetic fluorescence assay); settings: Ki(cathepsin S)/Ki(calpain) ratio
T4 construct: purchased Calbiochem 219343; host or cells: E. coli
T4 sequence (P25774 115-331): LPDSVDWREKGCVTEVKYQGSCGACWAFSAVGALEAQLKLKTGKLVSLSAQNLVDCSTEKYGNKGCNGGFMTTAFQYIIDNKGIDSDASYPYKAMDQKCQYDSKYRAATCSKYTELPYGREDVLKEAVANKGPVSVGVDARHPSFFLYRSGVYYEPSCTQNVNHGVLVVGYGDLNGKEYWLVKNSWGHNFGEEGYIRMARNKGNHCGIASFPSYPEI
Outline: as §1

| SMILES | Sel cat. B (cathepsin B) | Sel cat. K (cathepsin K) | Sel cat. L (cathepsin L) | Sel cat. S (cathepsin S) |
| --- | --- | --- | --- | --- |
| NC(=O)C(=O)[C@H](Cc1ccccc1)NC(=O)c1cccnc1-n1ccc(-c2ccccc2)n1 [Example 107, N-[(1S)-3-Amino-2,3-dioxo-1-(phenylmethyl)propyl]-2-(3-phenyl-1H-pyrazol-1-yl)pyridine-3-carboxamide] | + (+ means 10≦Ki(cathepsin B)/Ki(calpain)<30) | + (+ means 10≦Ki(cathepsin K)/Ki(calpain)<30) | ++ (++ means a Ki(cathepsin L)/Ki(calpain) ratio of ≧50) | ++ (++ means a Ki(cathepsin S)/Ki(calpain) ratio of ≧100) |
| NC(=O)C(=O)C(Cc1ccc(F)cc1)NC(=O)c1cccnc1-n1ccc(-c2ccccc2)n1 (centres unmarked) [Example 123, N-{3-Amino-1-[(4-fluorophenyl)methyl]-2,3-dioxopropyl}-2-(3-phenyl-1H-pyrazol-1-yl)pyridine-3-carboxamide] | ++ (++ means a Ki(cathepsin B)/Ki(calpain) ratio of ≧30) | ++ (++ means a Ki(cathepsin K)/Ki(calpain) ratio of ≧30) | ++ (++ means a Ki(cathepsin L)/Ki(calpain) ratio of ≧50) | ++ (++ means a Ki(cathepsin S)/Ki(calpain) ratio of ≧100) |
| NC(=O)C(=O)C(Cc1ccccc1)NC(=O)c1cccnc1-n1ccc(-c2ccc(N3CCCC3)cc2)n1 (centres unmarked) [Example 69, N-(3-Amino-1-benzyl-2,3-dioxopropyl)-2-[3-(4-pyrrolidin-1-ylphenyl)-1H-pyrazol-1-yl]nicotinamide] | + (+ means 10≦Ki(cathepsin B)/Ki(calpain)<30) | + (+ means 10≦Ki(cathepsin K)/Ki(calpain)<30) | ++ (++ means a Ki(cathepsin L)/Ki(calpain) ratio of ≧50) | ++ (++ means a Ki(cathepsin S)/Ki(calpain) ratio of ≧100) |
| NC(=O)C(=O)C(Cc1ccccc1)NC(=O)c1cccnc1-n1ccc(C23CC4CC(CC(C4)C2)C3)n1 (centres unmarked) [Example 193, N-[3-Amino-2,3-dioxo-1-(phenylmethyl)propyl]-2-(3-tricyclo[3.3.1.1^3,7]dec-1-yl-1H-pyrazol-1-yl)pyridine-3-carboxamide] | ++ (++ means a Ki(cathepsin B)/Ki(calpain) ratio of ≧30) | ++ (++ means a Ki(cathepsin K)/Ki(calpain) ratio of ≧30) | ++ (++ means a Ki(cathepsin L)/Ki(calpain) ratio of ≧50) | ++ (++ means a Ki(cathepsin S)/Ki(calpain) ratio of ≧100) |
| NC(=O)C(=O)C(Cc1ccc(Cl)cc1)NC(=O)c1cccnc1-n1ccc(-c2ccc(F)cc2)n1 (centres unmarked) [Example 67, N-[3-Amino-1-(4-chlorobenzyl)-2,3-dioxopropyl]-2-[3-(4-fluorophenyl)-1H-pyrazol-1-yl]nicotinamide] | + (+ means 10≦Ki(cathepsin B)/Ki(calpain)<30) | + (+ means 10≦Ki(cathepsin K)/Ki(calpain)<30) | ++ (++ means a Ki(cathepsin L)/Ki(calpain) ratio of ≧50) | ++ (++ means a Ki(cathepsin S)/Ki(calpain) ratio of ≧100) |
| COc1ccc(CC(NC(=O)c2cccnc2-n2ccc(-c3cccc(Cl)c3Cl)n2)C(=O)C(N)=O)cc1 (centres unmarked) [Example 153, N-(3-Amino-1-{[4-(methyloxy)phenyl]methyl}-2,3-dioxopropyl)-2-[3-(2,3-dichlorophenyl)-1H-pyrazol-1-yl]pyridine-3-carboxamide] | ++ (++ means a Ki(cathepsin B)/Ki(calpain) ratio of ≧30) | ++ (++ means a Ki(cathepsin K)/Ki(calpain) ratio of ≧30) | ++ (++ means a Ki(cathepsin L)/Ki(calpain) ratio of ≧50) | ++ (++ means a Ki(cathepsin S)/Ki(calpain) ratio of ≧100) |
| NC(=O)C(=O)C(Cc1ccccc1)NC(=O)c1cccnc1-n1ccc(-c2ccc(F)cc2F)n1 (centres unmarked) [Example 94, N-[3-Amino-2,3-dioxo-1-(phenylmethyl)propyl]-2-[3-(2,4-difluorophenyl)-1H-pyrazol-1-yl]pyridine-3-carboxamide] | ++ (++ means a Ki(cathepsin B)/Ki(calpain) ratio of ≧30) | + (+ means 10≦Ki(cathepsin K)/Ki(calpain)<30) | ++ (++ means a Ki(cathepsin L)/Ki(calpain) ratio of ≧50) | ++ (++ means a Ki(cathepsin S)/Ki(calpain) ratio of ≧100) |
| Cc1c(Cl)ccc2c1-c1nn(-c3ncccc3C(=O)NC(Cc3ccccc3)C(=O)C(N)=O)cc1CO2 (centres unmarked) [Example 143, N-[3-Amino-2,3-dioxo-1-(phenylmethyl)propyl]-2-(8-chloro-9-methylchromeno[4,3-c]pyrazol-2(4H)-yl)pyridine-3-carboxamide] | ++ (++ means a Ki(cathepsin B)/Ki(calpain) ratio of ≧30) | ++ (++ means a Ki(cathepsin K)/Ki(calpain) ratio of ≧30) | ++ (++ means a Ki(cathepsin L)/Ki(calpain) ratio of ≧50) | ++ (++ means a Ki(cathepsin S)/Ki(calpain) ratio of ≧100) |
| COc1ccc2c(c1)-c1nn(-c3ncccc3C(=O)NC(Cc3ccccc3)C(=O)C(N)=O)cc1CO2 (centres unmarked) [Example 183, N-[3-Amino-2,3-dioxo-1-(phenylmethyl)propyl]-2-[8-(methyloxy)chromeno[4,3-c]pyrazol-2(4H)-yl]pyridine-3-carboxamide] | + (+ means 10≦Ki(cathepsin B)/Ki(calpain)<30) | + (+ means 10≦Ki(cathepsin K)/Ki(calpain)<30) | ++ (++ means a Ki(cathepsin L)/Ki(calpain) ratio of ≧50) | ++ (++ means a Ki(cathepsin S)/Ki(calpain) ratio of ≧100) |
| NC(=O)C(=O)C(Cc1ccccc1)NC(=O)c1cccnc1-n1ccc(-c2cccc3c2OCC3)n1 (centres unmarked) [Example 164, N-[3-Amino-2,3-dioxo-1-(phenylmethyl)propyl]-2-[3-(2,3-dihydro-1-benzofuran-7-yl)-1H-pyrazol-1-yl]pyridine-3-carboxamide] | + (+ means 10≦Ki(cathepsin B)/Ki(calpain)<30) | ++ (++ means a Ki(cathepsin K)/Ki(calpain) ratio of ≧30) | ++ (++ means a Ki(cathepsin L)/Ki(calpain) ratio of ≧50) | ++ (++ means a Ki(cathepsin S)/Ki(calpain) ratio of ≧100) |
| NC(=O)C(=O)C(Cc1ccccc1)NC(=O)c1cccnc1-n1cc2c(n1)-c1cc(Cl)ccc1OC2 (centres unmarked) [Example 140, N-[3-Amino-2,3-dioxo-1-(phenylmethyl)propyl]-2-(8-chlorochromeno[4,3-c]pyrazol-2(4H)-yl)pyridine-3-carboxamide] | + (+ means 10≦Ki(cathepsin B)/Ki(calpain)<30) | ++ (++ means a Ki(cathepsin K)/Ki(calpain) ratio of ≧30) | ++ (++ means a Ki(cathepsin L)/Ki(calpain) ratio of ≧50) | ++ (++ means a Ki(cathepsin S)/Ki(calpain) ratio of ≧100) |
| NC(=O)C(=O)C(Cc1ccccc1)NC(=O)c1cccnc1-n1ccc(-c2ccccc2OC(F)(F)F)n1 (centres unmarked) [Example 124, N-[3-Amino-2,3-dioxo-1-(phenylmethyl)propyl]-2-(3-{2-[(trifluoromethyl)oxy]phenyl}-1H-pyrazol-1-yl)pyridine-3-carboxamide] | ++ (++ means a Ki(cathepsin B)/Ki(calpain) ratio of ≧30) | ++ (++ means a Ki(cathepsin K)/Ki(calpain) ratio of ≧30) | ++ (++ means a Ki(cathepsin L)/Ki(calpain) ratio of ≧50) | ++ (++ means a Ki(cathepsin S)/Ki(calpain) ratio of ≧100) |
| NC(=O)C(=O)C(Cc1ccc(OCc2ccccc2)cc1)NC(=O)c1cccnc1-n1ccc(-c2ccccc2)n1 (centres unmarked) [Example 127, N-[3-Amino-2,3-dioxo-1-({4-[(phenylmethyl)oxy]phenyl}methyl)propyl]-2-(3-phenyl-1H-pyrazol-1-yl)pyridine-3-carboxamide] | ++ (++ means a Ki(cathepsin B)/Ki(calpain) ratio of ≧30) | ++ (++ means a Ki(cathepsin K)/Ki(calpain) ratio of ≧30) | ++ (++ means a Ki(cathepsin L)/Ki(calpain) ratio of ≧50) | ++ (++ means a Ki(cathepsin S)/Ki(calpain) ratio of ≧100) |
| COc1ccc(CC(NC(=O)c2cccnc2-n2ccc(-c3cccc(F)c3Cl)n2)C(=O)C(N)=O)cc1 (centres unmarked) [Example 157, N-(3-Amino-1-{[4-(methyloxy)phenyl]methyl}-2,3-dioxopropyl)-2-[3-(2-chloro-3-fluorophenyl)-1H-pyrazol-1-yl]pyridine-3-carboxamide] | ++ (++ means a Ki(cathepsin B)/Ki(calpain) ratio of ≧30) | ++ (++ means a Ki(cathepsin K)/Ki(calpain) ratio of ≧30) | ++ (++ means a Ki(cathepsin L)/Ki(calpain) ratio of ≧50) | ++ (++ means a Ki(cathepsin S)/Ki(calpain) ratio of ≧100) |
